Key:
[1] = system: TRP-2-specific CTLs; assay: Activation of cytotoxic T cells in cervical lymph nodes after tape stripping (TRP-2 tetramer flow cytometry); format: in vivo, C57BL/6(B6) mice; conditions: relative to total mononucleocytes as 100
Method: (§1) The corneal layers of the auricles of C57BL/6(B6) mice were destroyed by repeating a stripping procedure using an adhesive tape in 10 cycles, and an antigen peptide or EP4 agonist was applied as a test substance. The antigen peptide used was a melanoma-specific antigen peptide (Accord K.K. Peptide Business Department; hereinafter abbreviated TRP-2) in solution in 70% ethanol; 10 μg was applied to one side of each auricle. The EP4 agonist used was 11α,15α,-dihydroxy-9-oxo-16-(3-methoxymethylphenyl)-17,18,19,20-tetranol-3,7-dithiaprost-13E-enoic acid (hereinafter abbreviated Compound A-(1)) in solution in a mixed solvent of acetone:olive oil=10:1; 20 μL of 100 μM solution was applied to one side of each auricle. One week after application of the test substance, the cervical lymph nodes were removed. The frequency of TRP-2-specific CTLs was determined relative to the total number of mononucleocytes in the cervical lymph nodes as 100 by a flowcytometric analysis (FACScaliber; Becton, Dickinson and Company.) with a tetramer (Medical & Biological Laboratories Co., Ltd.). Four experimental groups were established: (1) a group undergoing tape stripping (hereinafter abbreviated TS) alone, (2) a group undergoing TS followed by application of TRP-2, (3) a group undergoing TS followed by application of Compound A-(1), and (4) a group undergoing TS followed by application of TRP-2 and Compound A-(1).
Note that the melanoma-specific antigen peptide TRP-2 was synthesized on the basis of a partial sequence described in the aforementioned Non-patent Document 1 (SEQ ID NO. 1) (Accord K.K. Peptide Business Department).
The same procedures as Example 1(1) were followed except that the EP4 agonists used were 4-[(2-{(2R)-2-[(1E,3S)-4-(4-fluorophenyl)-3-hydroxybut-1-enyl]-5-oxopyrrolidin-1-yl}ethyl)sulfanyl]butanoic acid (hereinafter abbreviated Compound L-(1)) and 4-{[2-((1R,2R,3R)-3-hydroxy-2-{(1E,3S)-3-hydroxy-4-[3-(methoxymethyl)phenyl]but-1-enyl}-5-oxocyclopentyl)ethyl]sulfanyl}butanoic acid (hereinafter abbreviated Compound M-(1)); the action of each compound to activate cytotoxic T cells was evaluated. Four experimental groups were established: (1) a group undergoing TS alone, (2) a group undergoing TS followed by application of TRP-2, (3) a group undergoing TS followed by application of TRP-2 and Compound L-(1), and (4) a group undergoing TS followed by application of TRP-2 and Compound M-(1).

[2] = system: HSVgpB-specific CTLs; assay: Activation of cytotoxic T cells in cervical lymph nodes after tape stripping (HSVgpB pentamer flow cytometry); format: in vivo, C57BL/6(B6) mice; conditions: Example 1(3)
Method: as §1
The same procedures as Example 1(1) were followed except that the antigen peptide used was the herpes simplex virus-specific antigen HSV glycoprotein B (hereinafter abbreviated HSVgpB), and that a flowcytometric analysis with a pentamer (ProImmune Company) was performed, and the action of each compound to activate cytotoxic T cells was evaluated. Five experimental groups were established: (1) a group undergoing TS alone, (2) a group undergoing TS followed by application of HSVgpB, (3) a group undergoing TS followed by application of HSVgpB and Compound A-(1), (4) a group undergoing TS followed by application of HSVgpB and Compound L-(1), and (5) a group undergoing TS followed by application of HSVgpB and Compound M-(1).
Note that the herpes simplex virus-specific antigen peptide HSVgpB was synthesized on the basis of the partial sequence shown by SEQ ID NO. 2 (Virology, Vol. 195, pp. 62-70, (1993)) (ProImmune Company).

[3] = system: TRP-2-specific CTLs; assay: Activation of cytotoxic T cells in isolated Langerhans cells co-cultured with lymphocytes; format: cell-based, C57BL/6(B6) mouse
Method: A given area of an auricle epidermal sheet was removed from the corneal layer of one auricle of each C57BL/6(B6) mouse, and trypsinized to yield an epidermal cell suspension. The epidermal cell suspension obtained was subjected to panning using an antibody specific for I-A^b antigen to isolate epidermal Langerhans cells. After each test substance (TRP-2 (concentration; 10 μg/mL) and Compound A-(1) (1 μM)) was added to the Langerhans cells isolated (cell density; 10^5 cells per mL), the cells were cultured with a medium (cRPMI1640 medium; Sigma-Aldrich Japan). Half a day later, the cells were co-cultured with splenocytic lymphocytes isolated from […] for 7 days. Subsequently, by a flowcytometric analysis (FACScaliber; Becton, Dickinson and Company.) using a tetramer (Medical & Biological Laboratories Co., Ltd.), the frequency of TRP-2-specific CTLs was determined relative to the total number of mononucleocytes in the medium as 100. Three experimental groups were established: (1) a group with no treatment, (2) a group with the addition of TRP-2, and (3) a group with the addition of both TRP-2 and Compound A-(1).

[4] = system: B16 melanoma cells; assay: Melanoma growth suppressing action; format: in vivo, B6 mouse; conditions: TS followed by application of TRP-2, experimental group (2)
Method: The corneal layer was removed from the right auricle of each B6 mouse by TS in the same manner as Example 1, and test substances (TRP-2 and Compound A-(1)) were applied there; 2 weeks later, the left auricle was treated in the same manner. The test substances applied to both ears were used in the same combination; TRP-2 was applied at 10 μg for one side of each auricle, and Compound A-(1) was applied at 20 μl, of 100 μM solution for one side of each auricle. Four days after the above-described treatment, each mouse received 2×10^5 B16 melanoma cells (RIKEN's Cell Bank) by subcutaneous transplantation, and examined for tumor growth. Experimental groups were established as in Example 1(1) (5 animals in each group).
Tumor diameter (mm), as an index of tumor growth, was measured in each group at various days after inoculation of B16 melanoma cells; the results are shown in FIG. 1.

[5] = Example 1(2), TS followed by application of TRP-2 and the EP4 agonist, cervical lymph nodes
[6] = TS followed by application of HSVgpB and the EP4 agonist

Q: How did the “Ratio of TRP-2-specific CTLs” value [1, 5] turn out when O=C(O)CCCSCCN1C(=O)CC[C@@H]1/C=C/[C@@H](O)Cc1ccc(F)cc1 [Compound L-(1), 4-[(2-{(2R)-2-[(1E,3S)-4-(4-fluorophenyl)-3-hydroxybut-1-enyl]-5-oxopyrrolidin-1-yl}ethyl)sulfanyl]butanoic acid] was run?
A: Its value is 1.92.

Q: And the “Ratio of HSVgpB-specific CTLs” value [2, 6]?
A: The value was 0.29.

Q: For COCc1cccc(C[C@H](O)/C=C/[C@H]2[C@H](O)CC(=O)[C@@H]2CCSCCCC(=O)O)c1 [Compound M-(1), 4-{[2-((1R,2R,3R)-3-hydroxy-2-{(1E,3S)-3-hydroxy-4-[3-(methoxymethyl)phenyl]but-1-enyl}-5-oxocyclopentyl)ethyl]sulfanyl}butanoic acid], which “Ratio of TRP-2-specific CTLs” value [1, 5] is on record?
A: Its value is 1.66.

Q: What about the “Ratio of HSVgpB-specific CTLs” value [2, 6] of the same compound?
A: The value was 0.30.

Q: With “HSVgpB: herpes simplex virus-specific antigen peptide; Herpes Simplex Virus glycoprotein B 498-505 (SEQ ID NO. 2) (SSIEFARL; Herpes Simplex Virus glycoprotein B 498-505) [reference compound]” as the compound, how does the “Ratio of HSVgpB-specific CTLs” value ([2]; TS followed by application of HSVgpB alone) read?
A: Its value is 0.25.

Q: Which results are given for “TRP-2: melanoma-specific antigen peptide; tyrosinase-related protein 2 181-188, partial sequence VYDFFVWL (SEQ ID NO. 1) (Tyrosinase-related protein 2 residues 181-188) [reference compound]”?
A: Ratio of TRP-2-specific CTLs ([1]; Example 1(1), TS followed by application of the test substance alone, cervical lymph nodes one week after application): 0.35; Ratio of TRP-2-specific CTLs ([1]; Example 1(2), TS followed by application of TRP-2 alone, cervical lymph nodes): 1.28; Ratio of TRP-2-specific CTLs ([3]; addition of TRP-2 (10 μg/mL) alone, 7 days co-culture, relative to total mononucleocytes in the medium as 100): 3.2; ratio of TRP-2-specific CTLs in B6 splenocytic lymphocytes ([3]; addition of TRP-2, experimental group (2)): increased; tumor growth suppressing action compared with an EP4 agonist alone [4]: equivalent

— patent US8507545B2, “Cytotoxic T cell activator comprising EP4 agonist” (National University Corporation, Hamamatsu University …, priority 2007, dated 2013)
